This is an account of results in patent US8993523B2, “Dimeric IAP inhibitors” (Novartis AG, priority 2010, dated 2015).

In assay [1] the target is T1, XIAP-BIR3 (Homo sapiens, UniProt P98170).
T1 construct: with either 100 nM XIAP-BIR3 or 6 nM cIAP1-BIR3
Kind of assay: Biacore SPR solution inhibition (competition with smac7mer peptide) binding assay, XIAP-BIR3. As to conditions: 100 nM XIAP-BIR3, competition with immobilised smac7mer peptide, 25° C.; read-out: XIAP-BIR3 Binding Biacore (Competitive) EC50. The source says:
(§1) The present method includes utility of a Surface plasmon resonance (SPR)-based biosensor (Biacore™ GE Healthcare, Uppsala, Sweden) to examine competition between the compounds of the present invention and smac7mer peptide for XIAP-BIR3 and cIAP1-BIR3 binding groove occupancy.
(§2) Biacore™ utilizes the phenomenon of surface plasmon resonance (SPR) to detect and measure binding interactions. In a typical Biacore experiment, one of the interacting molecules is immobilized on a flexible dextran matrix while the interacting partner is flowed over the derivatized surface. A binding interaction results in an increase in mass on the sensor surface and a corresponding direct change in the refractive index of the medium in the vicinity of the sensor surface. Changes in refractive index or signal are recorded in resonance units (R.U.) Signal changes due to association and dissociation of complexes are monitored in a non-invasive manner, continuously and in real-time, the results of which are reported in the form of a sensorgram.
(§3) Solution Inhibition Assay Format:
(§4) Biacore™ T100 (GE Healthcare, Uppsala, Sweden) was used to conduct all experiments reported herein. Sensor surface preparation and interaction analyses were performed at 25° C. Buffer and Biacore reagents were purchased from GE Healthcare. Running buffer containing 10 mM Hepes, pH7.4, 150 mM sodium chloride, 1.25 mM Dithiothreitol, 2% Dimethyl sulfoxide and 0.05% polysorbate 20 was utilized throughout all experiments.
(§5) Biotinylated smac7mer peptide was diluted to 10 nM in running buffer and captured onto a sensor surface pre-derivatized with streptavidin (sensor chip SA) towards peptide surface densities in the range 40-100 R.U. Peptide captured surfaces were blocked with 500 μM PEO2-Biotin (Thermo Scientific).
(§6) Interaction analyses were performed by first equilibrating each compound within a six point seven fold compound dilution series in the range 1 μM to 0.06 nM with either 100 nM XIAP-BIR3 or 6 nM cIAP1-BIR3 for at least one hour during instrument start-up procedures. Protein compound mixtures were then injected over reference and smac7mer peptide surfaces in series for 60 seconds at a flow-rate of 60 μL/min. Surface regeneration was performed at the end of each analysis cycle by a 30 second injection of 10 mM Glycine, pH 2.5, 1M Sodium Chloride, 0.05% polysorbate 20. Additionally, control compound samples and control XIAP-BIR3 or cIAP1-BIR3 samples were prepared and run at regular intervals to monitor surface and assay performance.
(§7) Data analyses were carried out using Biacore™ T100 evaluation software v2.0 to validate assay quality. Binding level report points were plotted versus logarithmic compound concentration values and analyzed in Graphpad prism 5 via non-linear regression using a one-site competition model. EC50 values were generated and used as a measure of inhibitor potency.
Background: Surface plasmon resonance follows binding to a sensor surface in real time, without labels.

Assay [2] concerns the target T2, cIAP1-BIR3 (Homo sapiens, UniProt Q13490).
T2 construct: with either 100 nM XIAP-BIR3 or 6 nM cIAP1-BIR3
Nature of the assay: Biacore SPR solution inhibition (competition with smac7mer peptide) binding assay, cIAP1-BIR3. As to conditions: 6 nM cIAP1-BIR3, competition with immobilised smac7mer peptide, 25° C.; read-out: CIAP-BIR3 Binding Biacore (Competitive) EC50.
Description: as §1, §2, §3, §4, §5, §6, §7

The subject of assay [3] is Panc3.27 tumor cells. Nature of the assay: Cellular assay: Panc3.27 tumor cell proliferation (Cell Titer Glo). Type of assay: cell-based. Conditions: Panc3.27 cells, 72 hour treatment, read-out: PANC proliferation IC50. As for the experimental part: Cellular Assay—Treatment of Panc3.27 Tumor Cells with Dimeric IAP Antagonists
On day one adherent Panc3.27 cells are plated into two 96-well, clear, flat bottom plates. All wells in row A contain 90 uL of media. All wells in rows B-G contain a total volume of 90 uL per well and 4000 cells per well for Panc3.27 cell lines. Plates are then incubated overnight for 18 hours at 37° C., 5% CO2.
On day two cells are treated with the compounds of formula M-L-M′. Treatments are done in triplicate. The compounds are first serially diluted in DMSO and then added to media giving a final concentration of 0.2% DMSO when added to cells. Cells are treated with 10 uL of serially diluted compounds of formula M-L-M′ at a final concentration of 1000 nM, 200 nM, 40 nM, 8 nM, 1.6 nM, 0.32 nM, 0.06 nM, 0.013 nM, 0.0026 nM, and one untreated well. Plate two is used as a time zero plate.
To measure cell viability 50 uL of Cell Titer Glo (CTG) solution is added to row A, media only and B, cells and media. CTG is purchased from Promega Corporation catalog number G7573. The solution is prepared according to manufacturer's instructions. CTG measures the amount of ATP released from viable cells that is proportional to the number of cells in each well. After incubating for ten minutes with CTG plates are measured on a luminescent reader at 700 nm wavelength. Read time is approximately one second per well for a 96-well plate.
On day five 50 uL of CTG is added to plate one, rows A-G, incubated for 10 minutes at room temperature and read on a luminescent reader. Raw data is adjusted to account for the time zero plate as well as background noise. Triplicate values are averaged and percent control growth is calculated. Percent control growth is calculated using the following logical test: If well read data point (a) is greater than time zero data point (t=0), then 100*[(a)−(t=0)]/[(72 hour total growth)−(t=0)], OR 100*[(a)−(t=0)]/[(t=0)]. Data is represented by line graph with the concentration of compound on the x axis and percent control growth on the y axis.
(In ATP-based viability assays light output follows the ATP content of the culture.)

Molecules are shown by their SMILES.

T1 sequence (P98170 241-356 limits assumed): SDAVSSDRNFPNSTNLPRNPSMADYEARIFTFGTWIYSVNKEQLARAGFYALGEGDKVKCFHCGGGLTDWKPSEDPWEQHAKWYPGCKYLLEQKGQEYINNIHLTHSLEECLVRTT
T2 sequence (Q13490 260-352 limits assumed): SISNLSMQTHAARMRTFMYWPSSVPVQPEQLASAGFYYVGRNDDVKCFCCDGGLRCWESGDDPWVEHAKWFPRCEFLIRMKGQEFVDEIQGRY

With `CN[C@@H](C)C(=O)N[C@H](C(=O)N1CCC[C@H]1c1cncc(-n2cc(C(=O)NCCCCNC(=O)c3cn(-c4cncc([C@@H]5CCCN5C(=O)[C@@H](NC(=O)[C@H](C)NC)C(C)C)c4)c4ccccc34)c3ccccc32)c1)C(C)C` [Example 2J, (S,S,S)—N,N′-(butane-1,4-diyl)bis(1-(5-((S)-1-((S)-3-methyl-2-((S)-2-(methylamino)propanamido)butanol)pyrrolidin-2-yl)pyridin-3-yl)-1H-indole-3-carboxamide)], the results for the EC50 in assay [1] and in assay [2] were 19.3 to 19.5 nM and 1.13 to 1.15 nM, respectively. The IC50 in assay [3] was 0.18 to 1.21 nM.

Take `CN[C@@H](C)C(=O)N[C@H](C(=O)N1CCC[C@H]1c1cncc(-n2cc(C(=O)NCCCCCCNC(=O)c3cn(-c4cncc([C@@H]5CCCN5C(=O)[C@@H](NC(=O)[C@H](C)NC)C(C)C)c4)c4ccccc34)c3ccccc32)c1)C(C)C` [Example 2L, (S,S,S)—N,N′-(hexane-1,6-diyl)bis(1-(5-((S)-1-((S)-3-methyl-2-((S)-2-(methylamino)propanamido)butanol)pyrrolidin-2-yl)pyridin-3-yl)-1H-indole-3-carboxamide)]: the EC50 was in the range of 25.5 to 25.8 nM in assay [1] and 1.71 to 1.73 nM in assay [2]. The IC50 in assay [3] is below 0.0026 nM.

On to `CN[C@@H](C)C(=O)N[C@H](C(=O)N1CCC[C@H]1c1cncc(-n2cc(C(=O)N[C@H]3CC[C@H](NC(=O)c4cn(-c5cncc([C@@H]6CCCN6C(=O)[C@@H](NC(=O)[C@H](C)NC)C(C)C)c5)c5ccccc45)CC3)c3ccccc32)c1)C(C)C` [Example 2M, 1-(5-((S)-1-((S)-3-methyl-2-((S)-2-(methylamino)propanamido)-butanoyl)pyrrolidin-2-yl)pyridin-3-yl)-N-((1S,4S)-4-(1-(5-((S)-1-((S)-3-methyl-2-((S)-2-(methylamino)propanamido)butanoyl)pyrrolidin-2-yl)pyridin-3-yl)-1H-indole-3-carboxamido)cyclohexyl)-1H-indole-3-carboxamide], for which the EC50 in assay [1] lay within 26.1 to 26.4 nM; in assay [2], 0.7 to 0.71 nM. Moreover, the IC50 in assay [3] is below 0.0026 nM.

For `CN[C@@H](C)C(=O)N[C@H](C(=O)N1CCC[C@H]1c1cncc(-n2cc(C(=O)N3CC4(C3)CN(C(=O)c3cn(-c5cncc([C@@H]6CCCN6C(=O)[C@@H](NC(=O)[C@H](C)NC)C(C)C)c5)c5ccccc35)C4)c3ccccc32)c1)C(C)C` [Example 2N, (2S,2′S)—N,N′-((2S,2′S)-1,1′-((2S,2′S)-2,2′-(5,5′-(3,3′-(2,6-diazaspiro[3.3]heptane-2,6-diylbis(oxomethylene))bis(1H-indole-3,1-diyl))bis(pyridine-5,3-diyl))bis(pyrrolidine-2,1-diyl))bis(3-methyyl-1-oxobutane-2,1-diyl))bis(2-(methylamino)propanamide)], the EC50 was 32.6 to 33.3 nM in assay [1] and 0.57 to 0.68 nM in assay [2]. The IC50 in assay [3] lay within 7.04 to 8.37 nM.

`CN[C@@H](C)C(=O)N[C@H](C(=O)N1CCC[C@H]1c1cncc(-n2cc(C(=O)N3CCN(C(=O)c4cn(-c5cncc([C@@H]6CCCN6C(=O)[C@@H](NC(=O)[C@H](C)NC)C(C)C)c5)c5ccccc45)CC3)c3ccccc32)c1)C(C)C` [Example 2O, (2S,2′S)—N,N′-((2S,2′S)-1,1′-((2S,2′S)-2,2′-(5,5′-(3,3′-(piperazine-1,4-diylbis(oxomethylene))bis(1H-indole-3,1-diyl))bis(pyridine-5,3-diyl))bis(pyrrolidine-2,1-diyl))bis(3-methyl-1-oxobutane-2,1-diyl))bis(2-(methylamino)propanamide)]: the EC50 is 39 nM in assay [1] and 2.17 to 2.18 nM in assay [2]. For the same compound, in assay [3], the IC50 fell in the range of 0.54 to 1.37 nM.

A word on the EC50: it is the concentration at which the effect is half-maximal.
